The target of assay [1] is T1, Adenosine receptor A3 (Homo sapiens) (UniProt P0DMS8).
T1 sequence (whole entry): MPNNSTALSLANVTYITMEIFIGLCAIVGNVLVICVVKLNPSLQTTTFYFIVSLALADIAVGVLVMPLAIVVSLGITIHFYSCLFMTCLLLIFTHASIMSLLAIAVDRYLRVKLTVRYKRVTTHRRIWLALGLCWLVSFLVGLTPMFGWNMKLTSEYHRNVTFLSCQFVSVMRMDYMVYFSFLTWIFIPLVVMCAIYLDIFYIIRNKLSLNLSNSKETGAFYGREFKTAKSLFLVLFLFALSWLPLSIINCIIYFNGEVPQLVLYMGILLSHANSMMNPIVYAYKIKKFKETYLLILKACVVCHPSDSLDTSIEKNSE
Nature of the assay: (§1) Inhibition of [3H]PSB11 binding to human recombinant adenosine A3 receptor in CHO cells at >=10 uM. The assay is classed as cell-based.

Assay [2] has as its target T2, Adenosine receptor A3 (Homo sapiens, UniProt P0DMS8).
T2 sequence (P0DMS8 whole entry): T1 sequence (whole entry)
Nature of the assay: Displacement of [125I]AB-MECA from human recombinant adenosine A3 receptor expressed in CHO cells. The format is cell-based. (Loss of bound radioactivity is the signal in a displacement assay; it reports binding, not function.)

Assay [3] concerns the target T3, Adenosine receptor A2b (Homo sapiens, UniProt P29275).
T3 sequence (P29275 whole entry): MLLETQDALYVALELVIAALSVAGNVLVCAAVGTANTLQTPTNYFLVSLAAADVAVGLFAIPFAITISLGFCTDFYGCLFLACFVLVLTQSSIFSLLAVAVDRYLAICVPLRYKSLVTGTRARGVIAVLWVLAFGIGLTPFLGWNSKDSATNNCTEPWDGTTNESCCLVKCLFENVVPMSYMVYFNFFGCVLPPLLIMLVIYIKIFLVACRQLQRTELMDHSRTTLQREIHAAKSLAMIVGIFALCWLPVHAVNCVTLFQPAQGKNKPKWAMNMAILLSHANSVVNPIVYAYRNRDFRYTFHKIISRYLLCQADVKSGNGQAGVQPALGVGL
Nature of the assay: Displacement of [3H]PSB298 from human recombinant adenosine A2B receptor expressed in CHO cells. The assay is classed as cell-based.

Assay [4] deals with T2, Adenosine receptor A3. Nature of the assay: Displacement of [3H]PSB11 from human recombinant adenosine A3 receptor expressed in CHO cells. The assay is classed as cell-based.
Assay [5] deals with Adenosine receptors; A1 & A2b (Homo sapiens) (UniProt P30542+P29275). Nature of the assay: Selectivity for human adenosine A2B receptor over adenosine A1 receptor. The assay is classed as protein assay.
The target in assay [6] is Adenosine receptors; A2b & A3 (Homo sapiens) (UniProt P29275+P0DMS8). Nature of the assay: Selectivity for human adenosine A2B receptor over adenosine A3 receptor. The assay is classed as protein assay.
The target of assay [7] is T4, Adenosine receptor A1 (Rattus norvegicus, UniProt P25099).
T4 sequence (P25099 whole entry): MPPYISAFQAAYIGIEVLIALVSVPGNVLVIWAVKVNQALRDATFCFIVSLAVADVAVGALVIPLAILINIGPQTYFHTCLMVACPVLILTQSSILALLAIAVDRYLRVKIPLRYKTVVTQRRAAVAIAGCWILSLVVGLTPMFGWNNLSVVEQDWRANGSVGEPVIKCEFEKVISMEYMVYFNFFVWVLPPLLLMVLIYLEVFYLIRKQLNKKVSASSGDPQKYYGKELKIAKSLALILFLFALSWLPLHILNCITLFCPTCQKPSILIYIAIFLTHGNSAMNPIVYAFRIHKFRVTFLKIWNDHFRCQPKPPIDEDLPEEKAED
Nature of the assay: Displacement of [3H]CCPA from adenosine A1 receptor in rat brain cortical membranes. The format is cell membranes, Membrane.

In assay [8] the target is T5, Adenosine receptor A1 (Homo sapiens, UniProt P30542).
T5 sequence (P30542 whole entry): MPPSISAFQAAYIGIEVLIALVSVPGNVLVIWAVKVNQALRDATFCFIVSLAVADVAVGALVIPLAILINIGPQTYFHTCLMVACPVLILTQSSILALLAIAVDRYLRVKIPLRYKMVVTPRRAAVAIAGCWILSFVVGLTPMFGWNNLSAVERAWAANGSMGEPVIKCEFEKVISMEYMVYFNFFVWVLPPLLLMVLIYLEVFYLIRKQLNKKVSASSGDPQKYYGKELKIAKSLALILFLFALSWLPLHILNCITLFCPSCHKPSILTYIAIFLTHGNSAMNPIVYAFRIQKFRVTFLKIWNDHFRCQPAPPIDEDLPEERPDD
Nature of the assay: Displacement of [3H]CCPA from human recombinant adenosine A1 receptor expressed in CHO cells. The assay is classed as cell-based.

Assay [9] addresses Adenosine receptor A2a (Rattus norvegicus, UniProt P30543). Nature of the assay: Displacement of [3H]MSX2 from adenosine A2A receptor in rat brain striatal membranes. The assay is classed as cell membranes, Membrane.
For assay [10], the target named is Adenosine receptor A2a (Homo sapiens, UniProt P29274). Nature of the assay: Displacement of [3H]MSX2 from human recombinant adenosine A2A receptor expressed in CHO cells. The format is cell-based.
Sequence of Adenosine receptor A2a (Homo sapiens, UniProt P29274) (P29274 whole entry): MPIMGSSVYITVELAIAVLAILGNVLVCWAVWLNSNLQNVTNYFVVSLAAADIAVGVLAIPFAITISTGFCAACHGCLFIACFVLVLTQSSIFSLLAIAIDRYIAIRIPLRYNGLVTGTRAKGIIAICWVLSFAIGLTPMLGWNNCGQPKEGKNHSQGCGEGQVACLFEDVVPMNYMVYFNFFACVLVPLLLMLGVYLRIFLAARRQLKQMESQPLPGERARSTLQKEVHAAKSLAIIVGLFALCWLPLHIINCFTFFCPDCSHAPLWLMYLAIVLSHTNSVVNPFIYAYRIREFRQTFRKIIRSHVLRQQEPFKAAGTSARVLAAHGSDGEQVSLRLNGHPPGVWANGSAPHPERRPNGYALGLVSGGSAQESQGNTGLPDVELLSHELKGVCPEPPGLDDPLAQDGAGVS
In assay [11] the target is T1, Adenosine receptor A3 (Homo sapiens). Nature of the assay: Inhibition of [3H]PSB11 binding to human recombinant adenosine A3 receptor in CHO cells at >1 uM. The assay is classed as cell-based.
Assay [12] shares this target. Nature of the assay: Inhibition of [3H]PSB11 binding to human recombinant adenosine A3 receptor in CHO cells at >=1 uM. The format is cell-based.
For assay [13] the target is unchanged. Nature of the assay: Inhibition of [3H]PSB11 binding to human recombinant adenosine A3 receptor in CHO cells at >10 uM. The assay is classed as cell-based.
For assay [14], the target named is T2, Adenosine receptor A3. The description is as §1. The format is cell-based.

Bounds are passed on as bounds.

In general, inhibition refers to the relative decrease from the control value, in per cent. By Ki is commonly meant the equilibrium dissociation constant of an inhibitor or competing ligand from its target.

Sequence of Adenosine receptor A2a (Rattus norvegicus, UniProt P30543) (P30543 whole entry): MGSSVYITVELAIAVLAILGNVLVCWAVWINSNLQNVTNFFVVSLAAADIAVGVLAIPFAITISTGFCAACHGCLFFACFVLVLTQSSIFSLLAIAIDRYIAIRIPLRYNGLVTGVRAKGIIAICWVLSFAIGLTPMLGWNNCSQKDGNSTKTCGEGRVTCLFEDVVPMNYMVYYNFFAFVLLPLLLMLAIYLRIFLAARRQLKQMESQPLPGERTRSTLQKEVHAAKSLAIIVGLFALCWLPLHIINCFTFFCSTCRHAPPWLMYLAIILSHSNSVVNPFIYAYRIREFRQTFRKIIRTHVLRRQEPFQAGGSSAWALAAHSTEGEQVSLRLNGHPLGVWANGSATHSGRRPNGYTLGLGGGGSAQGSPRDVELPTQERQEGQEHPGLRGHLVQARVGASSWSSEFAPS

On to `Cn1c(=O)c2nc(-c3ccc(S(=O)(=O)NCCO)cc3)[nH]c2n(C)c1=O`, for which the inhibition in assay [1] is 49%.
`Cn1c(=O)c2[nH]c(-c3ccc(S(=O)(=O)O)cc3)nc2n(C)c1=O`: the inhibition constant Ki in [2] is 5890 nM.
On to `CCCn1c(=O)[nH]c2[nH]c(-c3ccc(S(=O)(=O)NCCc4ccccc4)cc3)nc2c1=O`, for which the inhibition constant Ki in assay [3] is 3.62 nM; in [4], at least 10000 nM; in assay [7], 10 nM; in assay [8], 183 nM; in assay [9] it was 297 nM; in [10], 769 nM. The Selectivity ratio is 50 in assay [5] and over 2700 in [6]. Further, in assay [1], the inhibition was 37%.
As for `CCCN(CCC)S(=O)(=O)c1ccc(-c2nc3c(=O)n(CCC)c(=O)[nH]c3[nH]2)cc1`, the inhibition in assay [11] is 18%.
On to `CCCn1c(=O)[nH]c2[nH]c(-c3ccc(S(=O)(=O)NCc4ccccc4)cc3)nc2c1=O`, for which the inhibition constant (Ki) was 4.2 nM in [3]; at least 1000 nM in assay [4]; 4.6 nM in [7]; 54.8 nM in assay [8]; 26.7 nM in assay [9]; 162 nM in [10]. In addition, the Selectivity ratio in assay [5] was 13; in assay [6] it was over 200. The inhibition in [12] was found to be 41%.
On to `CCCn1c(=O)[nH]c2[nH]c(-c3ccc(S(=O)(=O)NCCO)cc3)nc2c1=O`, for which the inhibitory constant (Ki) was 27.1 nM in assay [3], at least 10000 nM in assay [4], 45 nM in [7] and 287 nM in assay [9]. The inhibition in [1] worked out at 36%.
Regarding `CCCn1c(=O)[nH]c2[nH]c(-c3ccc(S(=O)(=O)NCC(=O)O)cc3)nc2c1=O`, the inhibition in [13] was 25%.
For `Cn1c(=O)c2[nH]c(-c3ccc(S(=O)(=O)NCCc4ccccc4)cc3)nc2n(C)c1=O`, the inhibition constant Ki in assay [3] is 4.48 nM; in assay [4], 1080 nM; in assay [7] it was 12 nM; in assay [8] it was 185 nM; in assay [9] it was 113 nM; in [10], 32.6 nM.
Take `Cn1c(=O)c2nc(-c3ccc(S(=O)(=O)NCC(=O)O)cc3)[nH]c2n(C)c1=O`: the inhibitory constant (Ki) in assay [3] was 154 nM; in assay [4], at least 10000 nM; in assay [7] it was 64 nM; in assay [9], 182 nM. In addition, the inhibition in [14] was found to be 41%.
On to `CCCn1c(=O)[nH]c2[nH]c(-c3ccc(S(=O)(=O)Nc4ccccc4)cc3)nc2c1=O`, for which the Ki in [3] is 31.4 nM; in [4], at least 1000 nM; in assay [7] it was 1.8 nM; in [9], 23 nM. The inhibition in assay [12] is 48%.
On to `CCCCNS(=O)(=O)c1ccc(-c2nc3c([nH]2)c(=O)n(C)c(=O)n3C)cc1`, for which the inhibitory constant (Ki) in [3] was 122 nM; in assay [4] it was at least 10000 nM; in assay [7], 27 nM; in assay [9], 165 nM.
Take `CCCn1c(=O)[nH]c2nc(-c3ccc(S(=O)(=O)O)cc3)[nH]c2c1=O`: the inhibition constant Ki in assay [4] and in [8] was over 10000 nM throughout.
Consider `Cn1c(=O)c2[nH]c(-c3ccc(S(=O)(=O)NCCO)cc3)nc2n(C)c1=O`, for which the Ki was 250 nM in assay [3], at least 10000 nM in assay [4], 98 nM in [7] and 347 nM in assay [9].
As to `CC(C)NS(=O)(=O)c1ccc(-c2nc3c([nH]2)c(=O)n(C)c(=O)n3C)cc1`, the inhibition constant Ki in assay [3] was 102 nM; in [4], over 10000 nM; in assay [7] it was 75 nM; in [9], 283 nM.
On to `CC(C)NS(=O)(=O)c1ccc(-c2nc3c(=O)n(C)c(=O)n(C)c3[nH]2)cc1`, for which, in assay [13], the inhibition stood at 27%.
Turning to `CCCn1c(=O)[nH]c2nc(-c3ccc(S(=O)(=O)N4CCN(Cc5ccccc5)CC4)cc3)[nH]c2c1=O`, the Ki was 3.6 nM in [3]; over 1000 nM in [4]; 260 nM in assay [7]; 2070 nM in assay [8]; 93.7 nM in [9]; 484 nM in assay [10]. Besides, the Selectivity ratio in assay [5] is 574; in assay [6] it was over 278. Moreover, in assay [11], the inhibition amounted to 29%.
In the case of `CCCn1c(=O)[nH]c2nc(-c3ccc(S(=O)(=O)NCC(=O)O)cc3)[nH]c2c1=O`, the inhibitory constant (Ki) was 101 nM in assay [3], over 10000 nM in [4], 100 nM in [7] and 320 nM in assay [9].
For `CCCCNS(=O)(=O)c1ccc(-c2nc3c(=O)n(C)c(=O)n(C)c3[nH]2)cc1`, the inhibition in assay [1] was 43%.
With `CCCN(CCC)S(=O)(=O)c1ccc(-c2nc3[nH]c(=O)n(CCC)c(=O)c3[nH]2)cc1`, the Ki was 53.8 nM in [3], over 1000 nM in assay [4], 5.5 nM in [7] and 42 nM in assay [9].
